# In patent US20260217732A1, “WRN INHIBITOR” (SUZHOU PUHE BIOPHARMA CO., LTD., priority 2022, published 2026):
# Where two headings read alike, the source gives them in different places.
# How the values were obtained:
# WRN enzyme = target: T1, WRN enzyme (Homo sapiens, UniProt Q14191); test: WRN helicase hydrolysis (unwinding) of double-stranded DNA, fluorescence assay; format: biochemical; conditions: 30 min pre-incubation, 60 min reaction
# T1 construct: 10 μL (2×) of WRN enzyme solution was added
# Experimental: • The molecules of the present disclosure were tested for their activities on the WRN helicase hydrolysis of double-stranded DNA (Table 1).
# A working solution to be tested and a buffer were prepared. The compound to be tested was dissolved in DMSO and subjected to 4× dilution (with 10 μM final concentration as the starting concentration). 0.2 μL of the solution of the compound to be tested was added to the 384-well plate and 10 μL (2×) of WRN enzyme solution was added. The solution was incubated in the dark for 30 minutes. Then, 10 μL of a substrate detection solution containing double-stranded DNA was added to initiate the reaction (the DNA has a length of 19 bp, and labeled with TAMRA and BHQ2 at 3′ and 5′-ends, respectively). The solution was incubated at room temperature for 60 minutes. The inhibitory activities (IC50) against WRN enzyme were calculated based on the change of Ex530/Em590 in the blank group (DMSO) and the compound group.
# [1] = test system: SW48 colorectal cancer cells; test: 2D antiproliferation on MSI-H SW48 cells, CTG, 5 days; format: cell-based; conditions: for IC50 / inhibition at 38.15 pM / inhibition at 0.000152588 µM / inhibition at 0.000610352 µM / inhibition at 0.00244141 µM / inhibition at 0.00976562 µM / inhibition at 0.0390625 µM / inhibition at 0.15625 µM / inhibition at 0.625 µM / inhibition at […] / inhibition at 10 µM: Homo sapiens; for IC50: 120 h, SW48 MSI-H, 5 days; for inhibition at 38.15 pM: SW48, 0.038146973 nM; for inhibition at 0.000152588 µM: SW48, 0.152587891 nM; for inhibition at 0.000610352 µM: SW48, 0.610351563 nM; for inhibition at 0.00244141 µM: SW48, 2.44140625 nM; for inhibition at 0.00976562 µM: SW48, 9.765625 nM; for inhibition at 0.0390625 µM: SW48, 39.0625 nM; for inhibition at 0.15625 µM: SW48, 156.25 nM; for inhibition at 0.625 µM: SW48, 625 nM; for inhibition at […]: SW48, 2500 nM; for inhibition at 10 µM: SW48, 10000 nM
# Experimental: The molecules of the present disclosure were tested for their anti-proliferative activity on MSI-H tumor cells.
# SW48 colorectal cancer cells with MSI were cultured in a RMI1640 medium containing 10% FBS and 1% penicillin-streptomycin, and the mixture was cultured in a 37° C., 5% CO2 incubator. 40 μL of cell suspension was added to each well of a 384-well microplate. […] of compounds with different concentrations were added to each well using Echo, and the mixtures were cultured in a 37° C., 5% CO2 incubator for 5 days. 40 μL of CTG solution (Promega, Cat No. G7573) was added to each well and incubated in a 37° C., 5% CO2 incubator in the dark for 30 minutes. The luminescence value was read using an Envision multi-function microplate reader (Perkin Elmer, catalog number Envision 2104). The optical signal is proportional to the amount of ATP in the system, while the ATP content directly characterizes the number of viable cells in the system.
# [2] = test system: HT-29 colorectal cancer cells; test: 2D antiproliferation on MSS HT-29 cells, CTG, 5 days; format: cell-based; conditions: Homo sapiens, 120 h, HT-29 MSS
# Experimental: The molecules of the invention were tested for their anti-proliferative activities on MSS tumor cells.
# HT-29 colorectal cancer cells with MSS were cultured in a McCoy's 5A medium containing 10% FBS and 1% penicillin-streptomycin in a 37° C., 5% CO2 constant temperature incubator. 40 μL of cell suspension was added to each well of a 384-well microplate. […] of compounds with different concentrations were added to each well using Echo. The mixtures were cultured in a 37° C., 5% CO2 constant temperature incubator for 5 days. 40 μL of CTG solution (Promega, Cat No. G7573) was added to each well, and the mixture was incubated in a 37° C., 5% CO2 constant temperature incubator for 30 minutes in the dark. The luminescence value was read using an Envision multi-function microplate reader (Perkin Elmer, catalog number Envision 2104). The optical signal is proportional to the amount of ATP in the system, while the ATP content directly characterizes the number of viable cells in the system.
# [3] = read-out: Average Value/Inhibition Rate
# [4] = read-out: Test 1/Inhibition Rate
# [5] = read-out: Test 2/Inhibition Rate
# T1 sequence (Q14191 whole entry): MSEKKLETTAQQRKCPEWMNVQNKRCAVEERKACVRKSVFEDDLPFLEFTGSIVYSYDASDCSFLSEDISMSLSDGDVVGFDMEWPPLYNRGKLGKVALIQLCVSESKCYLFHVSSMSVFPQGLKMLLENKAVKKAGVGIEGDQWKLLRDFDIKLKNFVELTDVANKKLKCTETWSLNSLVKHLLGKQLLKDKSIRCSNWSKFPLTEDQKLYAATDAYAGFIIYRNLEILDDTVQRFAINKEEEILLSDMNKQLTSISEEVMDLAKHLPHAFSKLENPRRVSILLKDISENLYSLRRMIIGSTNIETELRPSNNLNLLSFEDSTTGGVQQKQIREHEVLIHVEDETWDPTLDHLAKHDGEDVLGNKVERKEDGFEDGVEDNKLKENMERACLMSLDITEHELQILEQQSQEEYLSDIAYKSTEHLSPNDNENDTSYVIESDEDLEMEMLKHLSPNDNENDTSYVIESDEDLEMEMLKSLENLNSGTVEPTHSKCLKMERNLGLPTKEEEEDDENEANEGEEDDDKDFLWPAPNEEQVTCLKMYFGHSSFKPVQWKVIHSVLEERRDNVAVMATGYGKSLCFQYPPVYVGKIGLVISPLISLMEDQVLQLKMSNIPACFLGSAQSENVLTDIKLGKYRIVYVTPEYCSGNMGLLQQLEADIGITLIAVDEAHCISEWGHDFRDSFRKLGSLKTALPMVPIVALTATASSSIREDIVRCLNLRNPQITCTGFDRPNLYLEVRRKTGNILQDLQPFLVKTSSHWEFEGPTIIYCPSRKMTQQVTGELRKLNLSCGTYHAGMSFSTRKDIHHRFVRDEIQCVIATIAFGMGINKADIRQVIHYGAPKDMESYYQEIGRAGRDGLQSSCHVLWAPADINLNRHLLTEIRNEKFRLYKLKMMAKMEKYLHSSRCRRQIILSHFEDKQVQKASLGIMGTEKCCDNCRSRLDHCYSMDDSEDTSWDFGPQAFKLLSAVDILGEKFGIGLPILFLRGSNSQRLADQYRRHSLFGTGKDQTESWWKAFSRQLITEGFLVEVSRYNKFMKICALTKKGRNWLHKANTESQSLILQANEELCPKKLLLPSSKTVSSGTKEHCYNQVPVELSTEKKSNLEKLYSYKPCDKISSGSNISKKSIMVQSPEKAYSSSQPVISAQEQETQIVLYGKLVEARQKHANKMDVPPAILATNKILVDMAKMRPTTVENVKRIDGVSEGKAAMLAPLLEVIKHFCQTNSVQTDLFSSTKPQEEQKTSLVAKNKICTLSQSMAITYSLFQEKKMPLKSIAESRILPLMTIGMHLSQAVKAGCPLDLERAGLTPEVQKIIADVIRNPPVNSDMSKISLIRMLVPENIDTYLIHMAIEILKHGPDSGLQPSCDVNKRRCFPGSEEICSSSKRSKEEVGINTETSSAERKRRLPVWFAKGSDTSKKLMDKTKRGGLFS
smiles,measurement,setting,value
CCc1c(N2CC[C@@H](NC(=O)c3ncnc(C)c3O)C2)c(=O)n2nc(C3=CCOCC3)nc2n1CC(=O)Nc1ccc(C(F)(F)F)cc1Cl [P2],IC50,WRN enzyme,2.3 nM
same,IC50,[1],1110 nM
CCc1c(N2CCN(C(=O)c3ncccc3O)CC2)c(=O)n2nc(-c3cncs3)nc2n1CC(=O)Nc1ccc(C(F)(F)F)cc1Cl [P5],IC50,WRN enzyme,1.6 nM
same,IC50,[2],> 10000 nM
CCc1c(N2CCN(C(=O)c3ncccc3O)CC2)c(=O)n2nc(-c3sccc3N)nc2n1CC(=O)Nc1ccc(C(F)(F)F)cc1Cl [P8],IC50,WRN enzyme,3.7 nM
same,IC50,[1],566 nM
CCc1c(N2CCN(C(=O)c3ncccc3O)CC2)c(=O)n2nc(-c3ccc(COC)s3)nc2n1CC(=O)Nc1ccc(C(F)(F)F)cc1Cl [P10],IC50,WRN enzyme,2.1 nM
same,IC50,[1],125 nM
same,IC50,[2],> 10000 nM
CCc1c(N2CCN(C(=O)c3ncccc3O)CC2)c(=O)n2nc(-c3cnc(CO)s3)nc2n1CC(=O)Nc1ccc(C(F)(F)F)cc1Cl [P11],IC50,WRN enzyme,1.7 nM
same,IC50,[1],127 nM
same,IC50,[2],> 10000 nM
CCc1c(N2CCN(C(=O)c3ncccc3O)CC2)c(=O)n2nc(-c3cnc(C(C)=O)s3)nc2n1CC(=O)Nc1ccc(C(F)(F)F)cc1Cl [P12],IC50,WRN enzyme,9.4 nM
same,IC50,[1],450 nM
same,IC50,[2],> 10000 nM
CCc1c(N2CCN(C(=O)c3ncnc(C)c3O)CC2)c(=O)n2nc(-c3cc4cn[nH]c4s3)nc2n1CC(=O)Nc1ccc(C(F)(F)F)cc1Cl [P19],inhibitory activity on SW48 cells,[1]; 39 nM,high inhibitory activity
same,IC50,[1],82 nM
same,inhibition at 38.15 pM,[1]; [3],-0.502%
same,inhibition at 38.15 pM,[1]; [4],2.13%
same,inhibition at 38.15 pM,[1]; [5],-3.13%
same,inhibition at 0.000152588 µM,[1]; [3],-1.21%
same,inhibition at 0.000152588 µM,[1]; [4],-2.38%
same,inhibition at 0.000152588 µM,[1]; [5],-0.0356%
same,inhibition at 0.000610352 µM,[1]; [3],2.86%
same,inhibition at 0.000610352 µM,[1]; [4],3.47%
same,inhibition at 0.000610352 µM,[1]; [5],2.26%
same,inhibition at 0.00244141 µM,[1]; [3],-3.38%
same,inhibition at 0.00244141 µM,[1]; [4],-2.94%
same,inhibition at 0.00244141 µM,[1]; [5],-3.82%
same,inhibition at 0.00976562 µM,[1]; [3],-3.51%
same,inhibition at 0.00976562 µM,[1]; [4],-1.53%
same,inhibition at 0.00976562 µM,[1]; [5],-5.5%
same,inhibition at 0.0390625 µM,[1]; [3],1.51%
same,inhibition at 0.0390625 µM,[1]; [4],3.47%
same,inhibition at 0.0390625 µM,[1]; [5],-0.452%
same,inhibition at 0.15625 µM,[1]; [3],95.5%
same,inhibition at 0.15625 µM,[1]; [4],96%
same,inhibition at 0.15625 µM,[1]; [5],95%
same,inhibition at 0.625 µM,[1]; [3],97.6%
same,inhibition at 0.625 µM,[1]; [4],96.9%
same,inhibition at 0.625 µM,[1]; [5],98.4%
same,inhibition at […],[1]; [3],98.6%
same,inhibition at […],[1]; [4],99.4%
same,inhibition at […],[1]; [5],97.8%
same,inhibition at 10 µM,[1]; [3],102%
same,inhibition at 10 µM,[1]; [4],103%
same,inhibition at 10 µM,[1]; [5],102%
same,IC50,[2],> 10000 nM
CCc1c(N2CCN(C(=O)c3ncnc(C)c3O)CC2)c(=O)n2nc(-c3cc4c(s3)COC4)nc2n1CC(=O)Nc1ccc(Cl)cc1Cl [P26],IC50,[1],41 nM
same,IC50,[2],> 10000 nM
CCc1ccc(NC(=O)Cn2c(CC)c(N3CCN(C(=O)c4ncnc(C)c4O)CC3)c(=O)n3nc(-c4cc5c(s4)COC5)nc23)c(C)c1 [P27],IC50,[1],46 nM
same,IC50,[2],> 10000 nM
CCc1c(N2CCN(C(=O)c3ncccc3O)CC2)c(=O)n2nc(-c3cc4c(s3)COC4)nc2n1CC(=O)Nc1ccc(C(F)(F)F)cc1 [P28],IC50,[1],136 nM
same,IC50,[2],> 10000 nM
CCc1c(N2CCN(C(=O)c3ncnc(C)c3O)CC2)c(=O)n2nc(-c3cc4c(s3)COC4)nc2n1CC(=O)Nc1ccc(C(F)(F)F)c(F)c1C [P30],IC50,[1],33 nM
same,IC50,[2],> 10000 nM
CCc1c(N2CCN(C(=O)c3ncnc(C)c3O)CC2)c(=O)n2nc(-c3cc4c(s3)COC4)nc2n1CC(=O)Nc1cc(F)c(C(F)(F)F)cc1C [P31],IC50,[1],49 nM
same,IC50,[2],> 10000 nM
CCc1c(N2CCN(C(=O)c3ncnc(C)c3O)CC2)c(=O)n2nc(-c3sc(CO)nc3C)nc2n1CC(=O)Nc1ccc(C(F)(F)F)cc1Cl [P34],IC50,[1],142 nM
same,IC50,[2],> 10000 nM
CCc1c(N2CCN(C(=O)c3ncnc(C)c3O)CC2)c(=O)n2nc(-c3cnc(CO)s3)nc2n1CC(=O)Nc1ccc(C(F)(F)F)cc1Cl [P35],IC50,[1],199 nM
same,IC50,[2],> 10000 nM
CCc1c(N2CCN(C(=O)c3ncnc(C)c3O)CC2)c(=O)n2nc(-c3cnc(CO)s3)nc2n1CC(=O)Nc1ccc(C(F)(F)F)c2ccsc12 [P36],IC50,[1],561 nM
same,IC50,[2],> 10000 nM
CCc1c(N2CCN(C(=O)c3ncnc(C)c3O)CC2)c(=O)n2nc(-c3ccn4nccc4c3)nc2n1CC(=O)Nc1ccc(C(F)(F)F)cc1Cl [P37],IC50,[1],46 nM
same,IC50,[2],> 10000 nM
CCc1c(N2CCN(C(=O)c3ncnc(C)c3O)CC2)c(=O)n2nc(-c3ccc4nccn4c3)nc2n1CC(=O)Nc1ccc(C(F)(F)F)cc1Cl [P38],IC50,[1],82 nM
same,IC50,[2],> 10000 nM
CCc1c(N2CCN(C(=O)c3ncnc(C)c3O)CC2)c(=O)n2nc(-c3ccc4nncn4c3)nc2n1CC(=O)Nc1ccc(C(F)(F)F)cc1Cl [P39],IC50,[1],> 10000 nM
same,IC50,[2],> 10000 nM
CCc1c(N2CCN(C(=O)c3ncccc3O)CC2)c(=O)n2nc(-c3c[nH]c4ncncc34)nc2n1CC(=O)Nc1ccc(C(F)(F)F)cc1Cl [P41],IC50,[1],2080 nM
same,IC50,[2],5590 nM
CCc1c(N2CCN(C(=O)c3ncnc(C)c3O)CC2)c(=O)n2nc(-c3cc4cncnc4s3)nc2n1CC(=O)Nc1ccc(C(F)(F)F)cc1Cl [P42],IC50,[1],620 nM
same,IC50,[2],> 10000 nM
CCc1c(N2CCN(C(=O)c3ncnc(C)c3O)CC2)c(=O)n2nc(-c3cc4cncnc4[nH]3)nc2n1CC(=O)Nc1ccc(C(F)(F)F)cc1Cl [P44],IC50,[1],> 10000 nM
same,IC50,[2],> 10000 nM
CCc1c(N2CCN(C(=O)c3ncnc(C)c3O)CC2)c(=O)n2nc(-c3cc4n(c3)CCOC4)nc2n1CC(=O)Nc1ccc(C(F)(F)F)cc1Cl [P45],IC50,[1],54 nM
same,IC50,[2],> 10000 nM
CCc1c(N2CCN(C(=O)c3ncnc(C)c3O)CC2)c(=O)n2nc(-c3ccc4nccn4c3)nc2n1CC(=O)Nc1ccc(C(F)(F)F)cc1F [P46],IC50,[1],452 nM
same,IC50,[2],> 10000 nM
CCc1c(N2CCN(C(=O)c3ncnc(C)c3O)CC2)c(=O)n2nc(-c3ccc4nccn4c3)nc2n1CC(=O)Nc1ccc(C(F)(F)F)cc1C [P47],IC50,[1],480 nM
same,IC50,[2],> 10000 nM
CCc1c(N2CCN(C(=O)c3ncnc(C)c3O)CC2)c(=O)n2nc(-c3cc4cn[nH]c4s3)nc2n1CC(=O)Nc1ccc(C(F)(F)F)cc1C [P50],IC50,[1],162 nM
same,IC50,[2],> 10000 nM
CCc1c(N2CCN(C(=O)c3ncnc(C)c3O)[C@H](C)C2)c(=O)n2nc(-c3cc4c(s3)COC4)nc2n1CC(=O)Nc1ccc(C(F)(F)F)cc1C [P53],IC50,[1],55 nM
same,IC50,[2],> 10000 nM
